This passage reports Emax and AC50 results from patent publication US12291533B2, “Substituted fused pyrimidine compounds and uses thereof” (Northwestern University, priority 2017, dated 2025).

For orientation: Emax means the greatest response seen or fitted, relative to the assay's reference. As usually defined, the AC50 is the concentration at which the activity in the assay is half-maximal.

The target of the assay is T1, glucocerebrosidase (Homo sapiens, UniProt P04062).
T1 sequence (P04062 40-536): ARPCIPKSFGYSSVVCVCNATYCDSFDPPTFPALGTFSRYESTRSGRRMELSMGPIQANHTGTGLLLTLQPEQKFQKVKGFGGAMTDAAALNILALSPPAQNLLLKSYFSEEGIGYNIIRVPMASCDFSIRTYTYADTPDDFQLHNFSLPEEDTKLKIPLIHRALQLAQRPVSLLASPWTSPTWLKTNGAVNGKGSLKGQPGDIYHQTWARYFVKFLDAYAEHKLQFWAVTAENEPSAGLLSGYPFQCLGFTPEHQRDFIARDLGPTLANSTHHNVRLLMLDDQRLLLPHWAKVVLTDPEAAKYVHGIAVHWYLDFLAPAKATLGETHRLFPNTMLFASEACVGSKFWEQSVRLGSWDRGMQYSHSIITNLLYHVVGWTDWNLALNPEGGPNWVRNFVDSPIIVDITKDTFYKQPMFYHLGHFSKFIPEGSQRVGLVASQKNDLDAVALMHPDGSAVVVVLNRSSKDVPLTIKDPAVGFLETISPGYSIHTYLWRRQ
Briefly: Glucocerebrosidase activity assay with blue substrate (4MU-Glc). The assay is classed as biochemical. Conditions: Table 1, 7.5 nM enzyme, 1.5 mM 4MU-Glc, 30 min at 37° C.; for AC50: titration 24 nM to 50 μM. The protocol: Example 2—Glucocerebrosidase Activity Assay with Blue Substrate
The compounds in DMSO solution 0.5 μL/well were transferred to a black 96-well plate (the final titration was 24 nM to 50 μM, 12 concentrations, 2× dilution). 33.5 μL enzyme solution (7.5 nM final concentration) was transferred to the wells. After 5 min of incubation at room temperature, the enzyme reaction was initiated by the addition of 33 μL/well blue substrate. Final concentration of the blue substrate (4MU-Glc) was 1.5 mM. The blue substrate reaction was terminated by the addition of 33 μL/well stop solution (1 M NaOH and 1 M glycine mixture, pH 10) after 30 min of incubation at 37° C. The fluorescence was then measured in the Biotek Synergy H1 multi-mode plate reader with Ex=365 nm and Em=440 nm.
Additional compounds were synthesized and tested for glucocerebrosidase modulatory activity as described in Example 1 and Example 2.

Regarding `CN(C[C@H]1COc2ccccc2O1)c1nc(-c2cccnc2)nc2ccccc12` [Compound 9, (S)—N-((2,3-dihydrobenzo[b][1,4]dioxin-2-yl)methyl)-N-methyl-2-(pyridin-3-yl)quinazolin-4-amine], the Emax amounted to 645% and the half-maximal activity concentration (AC50) turned out to be 1.49 µM. On the same counts, the results for `CN(C[C@H]1COc2ccccc2O1)c1nc(-c2cccnc2)nc2c1cnn2C` [Compound 10] are 573% and 1.38 µM.

In the case of `CN(C[C@H]1COc2ccccc2O1)c1nc(-c2cccnc2)nc2ncccc12` [Compound 11], the AC50 was determined as 3.83 µM. As to `CN(C[C@@H]1COc2ccccc2O1)c1nc(-c2cccnc2)nc2ccccc12` [Compound 12], the Emax stood at 220% and the AC50 came to 2.67 µM. On the same counts, the results for `CN(CCOc1ccccc1)c1nc(-c2cccnc2)nc2ccccc12` [Compound 13] are 750% and 3.55 µM. With `CCN(CCOc1ccccc1)c1nc(-c2cccnc2)nc2ccccc12` [Compound 14], the Emax came to 430% and the AC50 amounted to 5.01 µM. Taken in the same sequence, the figures for `CCCN(CCOc1ccccc1)c1nc(-c2cccnc2)nc2ccccc12` [Compound 15] were 130% and 3.12 µM. Taken in the same sequence, the figures for `CN(CCOc1ccccc1)c1nc(-c2ccc(Cl)nc2)nc2ccccc12` [Compound 17] were 190% and 1.58 µM.

In the case of `O=C(O)CCCCCCCN(CCOc1ccccc1)c1nc(-c2cccnc2)nc2ccccc12` [Compound 19], the Emax was 150% and the AC50 turned out to be 1.78 µM. As to `O=C(CCCCCCCN(CCOc1ccccc1)c1nc(-c2cccnc2)nc2ccccc12)ON1C(=O)CCC1=O` [Compound 20], the maximal effect (Emax) is 500% and the AC50 worked out at 1.26 µM. Taken in the same sequence, the figures for `CN(CCOc1ccc(CCc2ccccc2)cc1)c1nc(-c2cccnc2)nc2ccccc12` [Compound 21] were 180% and 15.8 µM. For `c1ccc(OC2CCN(c3nc(-c4cccnc4)nc4ccccc34)C2)cc1` (stereo not drawn) [Compound 22], the maximal effect (Emax) turned out to be 300% and the AC50 came to 1.58 µM. Consider `Cc1cccc(OCCN(C)c2nc(-c3cccnc3)nc3ccccc23)c1` [Compound 23], for which the maximal effect (Emax) was determined as 500% and the concentration at half-maximal activity (AC50) stood at 3.55 µM. On the same counts, the results for `c1ccc(OCCOc2nc(-c3cccnc3)nc3ccccc23)cc1` [Compound 24] are 140% and 3.16 µM.

On to `c1ccc(O[C@H]2CCCN(c3nc(-c4cccnc4)nc4ccccc34)C2)cc1` [Compound 25], for which the Emax worked out at 220% and the half-maximal activity concentration (AC50) worked out at 3.98 µM. Consider `c1ccc(O[C@@H]2CCCN(c3nc(-c4cccnc4)nc4ccccc34)C2)cc1` [Compound 26], for which the maximal effect (Emax) worked out at 225% and the half-maximal activity concentration (AC50) came out at 1.78 µM. On the same counts, the results for `Cc1cc(C)cc(OCCN(C)c2nc(-c3cccnc3)nc3ccccc23)c1` [Compound 27] are 225% and 3.98 µM. Regarding `Cc1ccccc1OCCN(C)c1nc(-c2cccnc2)nc2ccccc12` [Compound 28], the maximal response (Emax) is 350% and the half-maximal activity concentration (AC50) was found to be 3.16 µM. On to `CN(CCOC(C)(C)C)c1nc(-c2cccnc2)nc2ccccc12` [Compound 29], for which the Emax was determined as 180% and the concentration at half-maximal activity (AC50) is 39.8 µM. Take `CN(CCc1c[nH]c2ccccc12)c1nc(-c2cccnc2)nc2ccccc12` [Compound 30]: the Emax is 250% and the AC50 came to 5.01 µM. On the same counts, the results for `CN(CCOc1ccccc1)c1nc(-c2cncc(Cl)c2)nc2ccccc12` [Compound 32] are 250% and 1.21 µM. As to `C#Cc1ccc(OCCN(C)c2nc(-c3cccnc3)nc3ccccc23)cc1` [Compound 33], the Emax was 190% and the AC50 was determined as 2.82 µM. Taken in the same sequence, the figures for `CN(CCOc1ccccc1)c1nc(-c2cccnc2F)nc2ccccc12` [Compound 34] were 160% and 1.12 µM.

In the case of `CN(CCOc1ccccc1)c1nc(-c2cncc(F)c2)nc2ccccc12` [Compound 35], the Emax amounted to 180% and the AC50 is 0.51 µM. Taken in the same sequence, the figures for `CN(CCOc1ccccc1)c1nc(-c2ccc(F)nc2)nc2ccccc12` [Compound 36] were 220% and 1.58 µM. With `CN(CCOc1ccccc1)c1nc(-c2cncc(C(F)(F)F)c2)nc2ccccc12` [Compound 37], the Emax was 250% and the AC50 was found to be 1.65 µM. As for `CN(CCOc1ccccc1)c1nc(-c2cccnc2)nc2c(F)cccc12` [Compound 38], the Emax worked out at 700% and the concentration at half-maximal activity (AC50) was found to be 2.82 µM. Taken in the same sequence, the figures for `CN(CCOc1ccccc1)c1nc(-c2cccnc2)nc2cc(F)ccc12` [Compound 39] were 450% and 2.82 µM. On the same counts, the results for `CN(CCOc1ccccc1)c1nc(-c2cccnc2)nc2ccc(F)cc12` [Compound 40] are 450% and 1.58 µM. Turning to `CN(CCOc1ccccc1)c1nc(-c2cccnc2)nc2cccc(F)c12` [Compound 41], the maximal effect (Emax) was determined as 180% and the concentration at half-maximal activity (AC50) amounted to 13.5 µM. Taken in the same sequence, the figures for `CN(CCN(C)c1nc(-c2cccnc2)nc2ccccc12)c1ccccc1` [Compound 42] were 250% and 6.54 µM. With `CN(CCOc1ccccc1)c1nc(-c2cccnc2)nc2c(C(F)(F)F)cccc12` [Compound 43], the Emax came to 400% and the half-maximal activity concentration (AC50) amounted to 1.81 µM. On the same counts, the results for `CN(CCOc1ccccc1)c1nc(-c2cccnc2)nc2cc(C(F)(F)F)ccc12` [Compound 44] are 180% and 4.12 µM. On the same counts, the results for `CN(CCOc1ccccc1)c1nc(-c2cccnc2)nc2ccc(C(F)(F)F)cc12` [Compound 45] are 120% and 5 µM. Taken in the same sequence, the figures for `Cc1noc(C)c1-c1nc(N(C)CCOc2ccccc2)c2ccccc2n1` [Compound 47] were 175% and 2.21 µM. Consider `CN(CCOc1ccccc1)c1nc(-c2coc3ccccc23)nc2ccccc12` [Compound 49], for which the maximal effect (Emax) was 120% and the concentration at half-maximal activity (AC50) is 2.42 µM. Take `CN(CCOc1ccccc1)c1nc(-c2ccc(O)nc2)nc2ccccc12` [Compound 51]: the Emax stood at 200% and the AC50 amounted to 8.17 µM. Taken in the same sequence, the figures for `CN(CCOc1ccc(CN)cc1)c1nc(-c2cccnc2)nc2ccccc12` [Compound 53] were 300% and 4.1 µM.

Take `CN(CCOc1ccccc1)c1nc(-c2ccc(N)nc2)nc2ccccc12` [Compound 54]: the Emax amounted to 170% and the AC50 worked out at 3.1 µM. Taken in the same sequence, the figures for `Cc1sc2nc(-c3cccnc3)nc(N(C)CCOc3ccccc3)c2c1C` [Compound 55] were 458% and 39.8 µM. On the same counts, the results for `CN(CCOc1ccccc1)c1nc(-c2cccnc2)nc2c1CCC2` [Compound 56] are 295% and 3.3 µM. Taken in the same sequence, the figures for `CN(CCOc1ccccc1)c1nc(-c2cccnc2)nc2c1CCCC2` [Compound 58] were 130% and 1.41 µM. Regarding `CN(CCOc1ccccc1)c1nc(-c2cccnc2)nc2ccsc12` [Compound 59], the maximal response (Emax) was 333% and the AC50 amounted to 5.01 µM. `CN(CCOc1ccccc1)c1nc(-c2cccnc2)nc2sccc12` [Compound 60]: the Emax turned out to be 624% and the AC50 was 3.16 µM.
